Reference: PubChem BioAssay AID1117324 (Cheminformatics & Chemogenomics Research Group (CCRG), …, 2015)
The source made the active and inactive calls. The rule behind the calls is not given here.

System: VEGF-stimulated ADSC/ECFC co-culture, nuclear area imaging
Test: nuclear area loss in endothelial-stromal co-culture, dose response, cell-based, VEGF stimulation, IC50 (AID 1117324)

Row | SMILES | IC50
1 | O=C(CCN1CCC(c2ccccc2)C1)c1ccc2c(c1)OCCO2 (centres undefined) | > 10 µM (inactive)
2 | C/C=C(/C(=C/C)c1ccc(OC(C)=O)cc1)c1ccc(OC(C)=O)cc1 | > 10 µM (inactive)
3 | CC12CCC(CC1)C(C)(C)O2 | > 10 µM (inactive)
4 | CC(=O)N(O)CCCCCNC(=O)CCC(=O)N(O)CCCCCNC(=O)CCC(=O)N(O)CCCCCN | > 10 µM (inactive)
5 | CCCCCCCCCCCCNCCNCCNCC(=O)O | > 10 µM (inactive)
6 | O=C(NC(=O)c1c(F)cccc1F)Nc1ccc(Cl)c(Oc2ncc(C(F)(F)F)cc2Cl)c1 | > 10 µM (inactive)
7 | CCOC(=O)[C@H](CCc1ccccc1)N[C@@H](C)C(=O)N1Cc2cc(OC)c(OC)cc2C[C@H]1C(=O)O | > 10 µM (inactive)
8 | Cc1cc(N)c2ccccc2[n+]1CCCCCCCCCC[n+]1c(C)cc(N)c2ccccc21 | > 10 µM (inactive)
9 | COC(=O)Nc1nc2ccc(Sc3ccccc3)cc2[nH]1 | > 10 µM (inactive)
10 | CC(CC=O)CCCC(C)(C)O (centres undefined) | > 10 µM (inactive)
11 | CC(C)=CCC/C(C)=C/CC/C(C)=C/C(=O)OCC(=O)[C@@]1(O)CC[C@H]2[C@@H]3CCC4=CC(=O)C=C[C@]4(C)[C@H]3[C@@H](O)C[C@@]21C | > 10 µM (inactive)
12 | CCN(CC)C(=O)/C(C#N)=C/c1cc(O)c(O)c([N+](=O)[O-])c1 | > 10 µM (inactive)
13 | O=C(CCBr)N1CCN(C(=O)CCBr)CC1 | > 10 µM (inactive)
14 | CCCCCCCCCCCCCCCCCCNC(=O)OC1CCN(C(=O)OC[C@H](COC(=O)N(Cc2cccc[n+]2CC)C(=O)c2ccccc2OC)OC)CC1 | > 10 µM (inactive)
15 | Cc1ccc([N+](=O)[O-])[c]2c1[O][Hg]2 | 1.09 µM
16 | C[C@@H](NCCCc1cccc(C(F)(F)F)c1)c1cccc2ccccc12 | > 10 µM (inactive)
17 | CCCCCCCC/C=C\CCCCCCCCN | 9.13 µM (inactive)
18 | COC(=O)Nc1nc2ccc(C(=O)C3CC3)cc2[nH]1 | > 10 µM (inactive)
19 | C[C@@]12C(=O)OC(=O)[C@]1(C)C1CCC2O1 | 8.33 µM (inactive)
20 | Nc1ncn([C@@H]2O[C@H](CO)[C@@H](O)[C@H]2O)c(=O)n1 | > 10 µM (inactive)
21 | C[S+](CC[C@H](N)C(=O)O)C[C@H]1O[C@@H](n2cnc3c(N)ncnc32)[C@H](O)[C@H]1O (some centres undefined) | > 10 µM (inactive)
22 | COC(=O)CCCCC(CCSS/C(CCO)=C(\C)N(C=O)Cc1cnc(C)nc1N)SC(C)=O (centres undefined) | > 10 µM (inactive)
23 | CCN(CC)CCCC(C)Nc1c2ccc(Cl)cc2nc2ccc(OC)cc12 (centres undefined) | > 10 µM (inactive)

Row | SMILES | IC50
24 | NC(=NCCCCCCN=C(N)/N=C(\N)Nc1ccc(Cl)cc1)/N=C(\N)Nc1ccc(Cl)cc1 | > 10 µM (inactive)
25 | COC(=O)C1=C(C)NC(C)=C(C(=O)O[C@@H]2CCCN(Cc3ccccc3)C2)[C@@H]1c1cccc([N+](=O)[O-])c1 | > 10 µM (inactive)
26 | CN(C)c1ccc2nc3ccc(=[N+](C)C)cc-3sc2c1 | > 10 µM (inactive)
27 | CCCSS/C(CCO)=C(\C)N(C=O)Cc1cnc(C)nc1N | > 10 µM (inactive)
28 | CC(C)=CCOc1ccc(/C=C/C(=O)c2ccc(OCC=C(C)C)cc2OCC(=O)O)cc1 | > 10 µM (inactive)
29 | CNC(=O)Oc1cccc2ccccc12 | > 10 µM (inactive)
30 | COC(=O)Nc1nc2ccc(C(=O)c3cccs3)cc2[nH]1 | > 10 µM (inactive)
31 | O[C@@H](CNC[C@H](O)[C@H]1CCc2cc(F)ccc2O1)[C@@H]1CCc2cc(F)ccc2O1 | > 10 µM (inactive)
32 | Cc1cc(O)c2c(O)c3c(O)cccc3cc2c1 | > 10 µM (inactive)
33 | O=C(Nc1ccc(Br)cc1)c1cc(Br)c(Br)s1 | > 10 µM (inactive)
34 | CO[C@H]1O[C@@H]2O[C@@]3(C)CC[C@H]4[C@H](C)CC[C@@H]([C@@H]1C)[C@@]24OO3 | > 10 µM (inactive)
35 | Nc1nc(F)nc2c1ncn2[C@@H]1O[C@H](CO)[C@@H](O)[C@@H]1O | > 10 µM (inactive)
36 | Oc1c(I)cc(Cl)c2cccnc12 | > 10 µM (inactive)
37 | Cc1cc(OCCOCC[N+](C)(C)Cc2ccccc2)ccc1C(C)(C)CC(C)(C)C | 8.7 µM (inactive)
38 | Nc1nc(=S)c2[nH]cnc2[nH]1 | > 10 µM (inactive)
39 | CN(C)CCOC1=Cc2ccccc2Sc2ccc(Cl)cc21 | > 10 µM (inactive)
40 | O=C(NC1CCN(CCc2c[nH]c3ccccc23)CC1)c1ccccc1 | > 10 µM (inactive)
41 | COc1cc([C@@H]2c3cc4c(cc3[C@H](O)[C@H]3COC(=O)[C@H]23)OCO4)cc(OC)c1OC | > 10 µM (inactive)
42 | CCN(CC)CCNc1ccc(CO)c2sc3ccccc3c(=O)c12 | > 10 µM (inactive)
43 | CC(C)=CCCC(C)=CCCC(C)=CCCC=C(C)CCC=C(C)CCC=C(C)C | > 10 µM (inactive)
44 | C#C[C@]1(OC(C)=O)CC[C@H]2[C@@H]3CCC4=C/C(=N/O)CC[C@@H]4[C@H]3CC[C@@]21CC | > 10 µM (inactive)
45 | O=C1c2c(O)ccc(O)c2C(=O)c2c(NCCNCCO)ccc(NCCNCCO)c21 | 0.0127 µM
46 | Oc1ccc2[nH]cc(CCCCN3CC=C(c4ccccc4)CC3)c2c1 | > 10 µM (inactive)

Row | SMILES | IC50
47 | C1CN(P2(N3CC3)=NP(N3CC3)(N3CC3)=NP(N3CC3)(N3CC3)=N2)CCO1 (centres undefined) | > 10 µM (inactive)
48 | Cc1cc(-c2ccc(N=Nc3c(S(=O)(=O)O)cc4cc(S(=O)(=O)O)cc(N)c4c3O)c(C)c2)ccc1N=Nc1c(S(=O)(=O)O)cc2cc(S(=O)(=O)O)cc(N)c2c1O | > 10 µM (inactive)
49 | Clc1ccc(CCC(Cn2ccnc2)Sc2c(Cl)cccc2Cl)cc1 (centres undefined) | 6.74 µM (inactive)
50 | CC(C)C[C@H](NC(=O)[C@H](CCc1ccccc1)NC(=O)CN1CCOCC1)C(=O)N[C@@H](Cc1ccccc1)C(=O)N[C@@H](CC(C)C)C(=O)[C@@]1(C)CO1 | 0.285 µM
51 | CCCCCCCCCCCCCCCC[N+](C)(C)CC | 7.58 µM (inactive)
52 | CC(=O)[C@]1(O)Cc2c(O)c3c(c(O)c2[C@@H](O[C@H]2C[C@H](N)[C@H](O)[C@H](C)O2)C1)C(=O)c1ccccc1C3=O | 0.538 µM
53 | Nc1nc(=O)n([C@@H]2O[C@H](CO)[C@@H](O)[C@@H]2F)cc1I | > 10 µM (inactive)
54 | CCCCC(=O)O[C@H]1CC[C@H]2[C@@H]3CCc4cc(O)ccc4[C@@H]3CC[C@]12C | 8.3 µM (inactive)
55 | CCN(CC)CCOc1ccc(/C(=C(\Cl)c2ccccc2)c2ccccc2)cc1 | > 10 µM (inactive)
56 | CCOC(=O)C1=C(C)NC(C)=C(C(=O)OCC)C1c1ccccc1/C=C/C(=O)OC(C)(C)C | > 10 µM (inactive)
57 | CCCCCCCC[N+](C)(C)CCCCCCCC | 7.43 µM (inactive)
58 | COc1cccc(CCc2ccccc2OCC(CN(C)C)OC(=O)CCC(=O)O)c1 (centres undefined) | > 10 µM (inactive)
59 | CCCCCCNC(=O)n1cc(F)c(=O)[nH]c1=O | > 10 µM (inactive)
60 | CN(C)C(=S)SSC(=S)N(C)C | > 10 µM (inactive)
61 | Cc1ccccc1C(=O)Nc1ccc(C(=O)N2CCCC(N(C)C)c3ccccc32)cc1 (centres undefined) | > 10 µM (inactive)
62 | O=C(N/N=C/c1ccccc1O)c1ccncc1 | > 10 µM (inactive)
63 | CCN1CCC[C@H]1CNC(=O)c1c(OC)ccc(Br)c1OC | > 10 µM (inactive)
64 | O=C(NOCC1CC1)c1ccc(F)c(F)c1Nc1ccc(I)cc1Cl | > 10 µM (inactive)
65 | O=c1[nH]cc(F)c(=O)[nH]1 | > 10 µM (inactive)
66 | O=c1c(-c2ccc(O)cc2)coc2cc(O)cc(O)c12 | > 10 µM (inactive)
67 | Cc1[nH]cnc1C[C@H]1CCc2c(C)c3ccccc3n2C1=O | > 10 µM (inactive)
68 | CN(C)C(=O)Oc1cccc([N+](C)(C)C)c1 | > 10 µM (inactive)
69 | CCCCCCCCCCCCCCCC[n+]1ccccc1 | 3.01 µM

Row | SMILES | IC50
70 | CC(C)(CO)[C@@H](O)C(=O)NCCC(=O)NCCSSCCNC(=O)CCNC(=O)[C@H](O)C(C)(C)CO | > 10 µM (inactive)
71 | CCCCC(CC)COC(=O)C(C#N)=C(c1ccccc1)c1ccccc1 (centres undefined) | 3.29 µM
72 | Oc1c(Br)cc(Br)c2cccnc12 | > 10 µM (inactive)
73 | CC(=O)NC(=O)c1ccccc1O | > 10 µM (inactive)
74 | CO[C@@H]1[C@@H](OC)[C@H](C)[C@@](O)(CC(=O)O)O[C@H]1[C@H](C)[C@H]1O[C@@]2(CC[C@@](C)([C@H]3CC[C@@](C)([C@@H]4O[C@@H]([C@H]5O[C@](C)(O)[C@H](C)C[C@@H]5C)C[C@@H]4OC4C[C@H](OC)[C@@H](OC)[C@H](C)O4)O3)O2)C[C@H](O)[C@H]1C (some centres undefined) | 2.57 µM
75 | CC[C@]1(O)C[C@H]2CN(CCc3c([nH]c4ccccc34)[C@@](C(=O)OC)(c3cc4c(cc3OC)N(C=O)[C@H]3[C@@](O)(C(=O)OC)[C@H](OC(C)=O)[C@]5(CC)C=CCN6CC[C@]43[C@@H]65)C2)C1 | > 10 µM (inactive)
76 | C=C(C)[C@H]1Cc2c(ccc3c2O[C@@H]2COc4cc(OC)c(OC)cc4[C@@H]2C3=O)O1 | > 10 µM (inactive)
77 | CCCSc1ccc2nc(NC(=O)OC)[nH]c2c1 | > 10 µM (inactive)
78 | O=C1CC[C@H](C(=O)N2CCCCC2)N1 | > 10 µM (inactive)
79 | CCCCC1C(=O)N(c2ccccc2)N(c2ccc(O)cc2)C1=O (centres undefined) | 8.83 µM (inactive)
80 | Cc1nc2ccc(CN(C)c3ccc(C(=O)N[C@@H](CCC(=O)O)C(=O)O)s3)cc2c(=O)[nH]1 | > 10 µM (inactive)
81 | CCCOC(=O)c1cc(O)c(O)c(O)c1 | > 10 µM (inactive)
82 | COc1ccc(/C=N/NC(=O)c2ccncc2)cc1OC | > 10 µM (inactive)
83 | C[C@H]1O[C@@H](O[C@H]2[C@@H](O)C[C@H](O[C@H]3[C@@H](O)C[C@H](O[C@H]4CC[C@@]5(C)[C@H](CC[C@@H]6[C@@H]5CC[C@]5(C)[C@@H](C7=CC(=O)OC7)CC[C@]65O)C4)O[C@@H]3C)O[C@@H]2C)C[C@H](O)[C@@H]1O | 0.103 µM
84 | CCCCCCCCCCOCC(O)CN (centres undefined) | > 10 µM (inactive)
85 | CN1CCC[C@@H]1CCO[C@](C)(c1ccccc1)c1ccc(Cl)cc1 | > 10 µM (inactive)
86 | COc1cccc2c1C(=O)c1c(O)c3c(c(O)c1C2=O)C[C@@](O)(C(=O)CO)C[C@@H]3O[C@H]1C[C@H](N)[C@H](O[C@@H]2CCCCO2)[C@H](C)O1 | 0.995 µM
87 | CCc1cccc(N(C)C(N)=Nc2cccc3ccccc23)c1 | > 10 µM (inactive)
88 | Cc1ccc(Nc2c(F)cccc2Cl)c(CC(=O)O)c1 | > 10 µM (inactive)
89 | COc1ccc([C@@H]2Sc3ccccc3NC(=O)[C@@H]2O)cc1 | > 10 µM (inactive)
